Read-outs that look alike come from different tables or passages of the source. Marks after values point to notes of the source that are not given here.
Tests used:
[1] = ref 12 (LeFrock et al), cited from earlier work
From the text: These current difficulties in the field of BJI explain the limited and controversial data available on the efficacy of teicoplanin in staphylococcal BJI. In past studies, treatment success rate ranged from 53 to 91 % [11–14]. The low success rate observed in our study (60 %) may be explained by several factors. First, there is a significant selection bias as patients were recruited in a reference center dedicated to manage complex BJI with a high-risk of failure. In addition, most of past studies included native BJI with a relatively short follow-up (<1 year). Finally, pharmacodynamics par ...

[2] = cited from earlier work
From the text: However, the incidence of AE was probably been underestimated due to the retrospective nature of our study (memory bias for non-severe AE). Indeed, in the prospective study of LeFrock et al, the rate of AE was 35 %, requiring discontinuation of treatment in 17 % of the cases. […] The retrospective design may result in underestimating non-serious AE such as injection site reactions.

S. aureus isolates = experiment: Susceptibility of staphylococcal isolates to teicoplanin; assay type: cell-based, Staphylococcus aureus; settings: all S. aureus isolates of the 65 episodes (MRSA 16.9 %); exact MIC not available; breakpoints ref 23
[3] = test system: Staphylococcus aureus bone and joint infection; experiment: Outcome (treatment failure) of teicoplanin-treated S. aureus bone and joint infection and its determinants; assay type: in vivo, human
From the text: BJI diagnosis was based upon the existence of clinical and biological evidences of infection, and at least one reliable bacteriological sample positive for S. aureus (i.e., percutaneous joint fluid aspiration, surgical sample, and/or blood culture). BJI were classified according to: i) the existence of orthopedic implant (i.e. joint prosthesis, peripheral or vertebral osteosynthesis); and ii) progression of infection, differentiating acute (≤3 weeks) versus chronic (>3 weeks) infection, calculated from the presumed date of inoculation (i.e., date of device implantation for postoperative orthopaedic device-related infection (ODI), or date of symptom onset for native BJI) up to diagnosis.
Treatment failure was defined as persisting infection under appropriate antimicrobial therapy, relapse after the interruption of antimicrobial therapy, necessity of surgical revision on the account of persisting septic focus ≥5 days after the first intervention, superinfections, and/or fatal outcome if BJI-related.

[4] = in vivo
From the text: Patients diagnosed with staphylococcal BJI were identified by cross-referencing the prospective maintained databases of the regional referral center for BJI and the bacteriology laboratory, which list exhaustively all strains isolated from osteoarticular samples since 2001. Patients with diabetic foot- and decubitus ulcer-related BJI were excluded, as they require a specific management. If patients presented more than one osteoarticular infected site, they were considered as independent events for cohort description and outcome analysis, but pooled for tolerance and pharmacologic evaluation. For each patient, data were collected from medical records, nursing charts and biological software in an anonymous standardized case report form.
A Cmin >15 mg/L was taken as an acceptable therapeutic target. Patients with a Cmin >25 mg/L were considered as overexposure.
For intravenous (IV) administration, each dose was diluted in 100 mL of isotonic saline solution and administrated over a 30-min period. For subcutaneous (SC) injections, each dose was diluted in 50 mL of isotonic saline solution and delivered by a nurse during a 30- to 60-min gravity infusion using a butterfly disposable needle.
Descriptive statistics were used to estimate the frequencies of the study variables, described as percentages (%) for dichotomous variables, and medians (interquartile range (IQR)) for continuous variables. For the percentage calculation of each variable, the number of missing values was excluded from the denominator. Non-parametric statistical methods were used to compare the study groups (Chi-squared test, Fisher exact test and Mann–Whitney U test), as appropriate. […] Clinically pertinent variables with a p-value <0.15 in the univariate analysis were included in the final multivariate models. A value of p <0.05 was considered as significant. All analyses were performed using SPSS software version 19.0 (SPSS, Chicago, IL).

[5] = Teicoplanin-related adverse events (CTCAE) and their determinants; set-up: species or system human; settings: in vivo
From the text: Teicoplanin-related adverse events (AE) occurring during follow-up were notified and classified according to the Common Terminology Criteria for Adverse Events (CTCAE, National Cancer Institute, 2003). Teicoplanin accountability in the AE occurrence was left to the clinician appreciation, with the help of a pharmacovigilance specialist in doubtful cases.

Substance: teicoplanin
- Cmin ([1]; average after 6 days, 6 mg/kg/day after 5 loading doses of 6 mg/kg/12 h): 10 mg/L
- Cmin ([1]; average from the third day, 12 mg/kg/day after 5 loading doses of 12 mg/kg/12 h): 20 mg/L
- Risk of toxicity with dose increase ([2]; dose increase from 400 to 600 mg/day): not associated with an increased risk of toxicity
- Severe local reaction (grade ≥3) ([2]; prospective evaluation of SC teicoplanin in 30 patients, ref 29 (El Samad et al)): no severe local reaction
- Susceptibility of staphylococcal isolates (S. aureus isolates): susceptible
- Influence of administration route on outcome ([3]; IV versus SC, treatment failure analysis): did not influence the outcome
- Limb amputations ([3]; among iterative surgical procedures, 65 episodes): two
- Patients obtaining Cmin >15 mg/L within the first 2 weeks of treatment [4]: 66.1%
- Subcutaneous versus intravenous route: pharmacokinetics and tolerance [4]: no difference
- Delay for Cmin >15 mg/L ([4]; iv): 9 (6–13) days
- Initial Cmin <15 mg/L ([4]; iv): 29 (74.4 %)
- Initial Cmin >25 mg/L ([4]; iv): 0 (0 %)
- Overdose (day 1 to 14), Cmin >25 mg/L ([4]; iv): 8 (16.0 %)
- Delay for Cmin >15 mg/L ([4]; sc): 7 (4.5–9.5) days
- Initial Cmin <15 mg/L ([4]; sc): 7 (70.0 %)
- Initial Cmin >25 mg/L ([4]; sc): 0 (0 %)
- Overdose (day 1 to 14), Cmin >25 mg/L ([4]; sc): 2 (14.3 %)
- Number of cutaneous rashes [5]: 5
- Number of episodes of headache [5]: 1
- Number of pancytopenia [5]: one
- OR (95%CI) of teicoplanin-related adverse event: administration route switch [5]: 0.221 (0.023-2.124)
- OR (95%CI) of teicoplanin-related adverse event: delay for Cmin >15 mg/L (days) [5]: 1.019 (0.769-1.351)
- OR (95%CI) of teicoplanin-related adverse event: initial Cmin (day 3 to 5, mg/L) [5]: 0.818 (0.656-1.020)
- OR (95%CI) of teicoplanin-related adverse event: initial Cmin <15 mg/L [5]: 2.037 (0.213-19.494)
- OR (95%CI) of teicoplanin-related adverse event: loading dose (mg/kg/12h) [5]: 1.850 (0.001-4228.586)^b
- OR (95%CI) of teicoplanin-related adverse event: loading dose given [5]: 0.889 (0.091-8.646)
- OR (95%CI) of teicoplanin-related adverse event: maintenance dose (mg/kg/24h) [5]: 5.150 (0.004-6359.356)^b
- OR (95%CI) of teicoplanin-related adverse event: number of loading injections [5]: 0.870 (0.559-1.354)
- Resolution of AE [5]: Yes
- OR (95%CI) of teicoplanin-related adverse event: IV route ([5]; iv): 0.571 (0.093-3.508)
- Teicoplanin-related AE ([5]; iv): 4 (8.7 %)
- Teicoplanin-related AE ([5]; sc): 2 (14.3 %)
